Assay results reported in patent US4985428A, “Isoxazoles with nootropic activity” (Zambon Group S.p.A., priority 1987, dated 1991).
Read-outs that look alike come from different tables or passages of the source.

Tested on: electroshock (ECS) amnesia in rat
Assay: electroshock (ECS) amnesia test in rat
Assay type: in vivo
Details: male rats, dose improving retention time by 50% of Δt vs ECS control
Method: The compounds of formula I are active on central nervous system and they can be used in pharmaceutical field as nootropics. By the electroshock (ECS) amnesia test, described in example 8, in rat the pharmacological activity of the compounds object of the present invention was evaluated in comparison with the activity of Piracetam and Aniracetam. Pharmacodynamic evaluation: electroshock (ECS) amnesia test in rat Male rats weighing 130-150 g and fasting for at least 12 hours before the beginning of the test were used. The test consisted in two experiments with a resting interval of 24 hours between them. First experiment: training session The animals were trained to associate the passage from a light partition to a dark one, in a suitable box, with a noxious stimulation that is an electric stimulation through an electrified grid (foot-shock: 1 mA for 10 seconds). Second experiment: retention session The ability of the animals to remember was evaluated as the time utilized to repeat the passage through the partitions (retention time). Evaluation of the retention time in control groups of animals The test was carried out first on two groups of animals as control. […] Fixing 60 seconds as time-limit for performing the second experiment, the average time (retention time) utilized for the passage was 54 seconds for the control and 32 seconds for the ECS control. Evaluation of the retention time in groups of treated animals Groups of 20 rats underwent the training session, the treatment for inducing amnesia and the retention session after administration of the compounds object of the present invention and of the reference compounds, Piracetam and Aniracetam. The administration was carried out 30 minutes before the training session in case of intraperitoneal administration (i.p.) and 60 minutes before in case of administration by oral route. At least three doses each compound and each administration route were tested. The difference between the retention time of the control and the retention time of the ECS control was considered as reference (Δt) and it was fixed, as percentage, equal to 100. In the groups of animals which were treated and underwent ECS the activity against amnesia of the compounds object of the present invention was expressed as ED50 that is as the dose of compound able to give an improvement of the retention time equal to 50% of the reference interval (Δt) in comparison with the ECS control.

[1] = ip, intraperitoneal, 30 minutes before training session, read-out: ED50 i.p.
[2] = oral route, 60 minutes before training session, read-out: ED50 os

COc1ccc(C(=O)N2CCCC2=O)cc1 [Aniracetam, 1-(4-methoxy-benzoyl)-2-pyrrolidinone, reference compound]
ED50 [1]: 353 µmol/kg | ED50 [2]: 1110 µmol/kg

CCOC(=O)CNC(=O)CCCNC(=O)c1cc(Br)no1 [Compound 12, Ethyl N-[N-(3-bromo-5-isoxazolecarbonyl)-4-aminobutyroyl]glicinate]
ED50 [1]: 171 µmol/kg | ED50 [2]: 1000 µmol/kg

O=C(O)CCCNC(=O)CCCNC(=O)c1cc(Br)no1 [Compound 19, N-[N-(3-bromo-5-isoxazolecarbonyl)-4-aminobutyroyl]-4-aminobutyric acid]
ED50 [2]: 261 µmol/kg

O=C(NCCCC(=O)N1CCCC1=O)c1cc(Br)no1 [Compound 21, 1-[N-(3-bromo-5-isoxazolecarbonyl)-4-aminobutyroyl]-2-pyrrolidinone]
ED50 [2]: 254 µmol/kg

O=C(O)CCCNC(=O)c1cc(Cl)no1 [Compound 2, N-(3-chloro-5-isoxazolecarbonyl)-4-aminobutyric acid]
ED50 [1]: 160 µmol/kg | ED50 [2]: 260 µmol/kg

NC(=O)CN1CCCC1=O [Piracetam, 2-pyrrolidinoneacetamide, reference compound]
ED50 [1]: 329 µmol/kg | ED50 [2]: 1550 µmol/kg

COc1cc(C(=O)NCCCC(=O)O)on1 [Compound 3, N-(3-methoxy-5-isoxazolecarbonyl)-4-aminobutyric acid]
ED50 [1]: 276 µmol/kg | ED50 [2]: 868 µmol/kg

O=C(NCCCC(=O)N1CCCC1)c1cc(Br)no1 [Compound 8, N-[4-oxo-4-(1-pyrrolidinyl)butyl]-3-bromo-5-isoxazolecarboxamide]
ED50 [1]: 25 µmol/kg | ED50 [2]: 80 µmol/kg

O=C(O)CCCNC(=O)c1cc(Br)no1 [Compound 1, N-(3-bromo-5-isoxazolecarbonyl)-4-aminobutyric acid]
ED50 [1]: 102 µmol/kg | ED50 [2]: 290 µmol/kg

Cc1cc(C(=O)NCCCC(=O)O)on1 [Compound 4, N-(3-methyl-5-isoxazolecarbonyl)-4-aminobutyric acid]
ED50 [1]: 202 µmol/kg | ED50 [2]: 383 µmol/kg
